Experimental data as given in patent publication US12691088B2, “Reactivation of mTOR in acute kidney injury (AKI)” (The Trustees of Columbia University in the City of New York, priority 2021, dated 2026).
Like-named read-outs stand apart in the source and are kept apart here.

Legend:
[1] = system: mTORC1; conditions: cited from earlier work; for mTORC1 activation (phosphorylation of S6K1 at threonine 389): mouse embryonic fibroblast (MEF) cells
[2] = system: mTORC1; conditions: human embryonic kidney 293A (HEK293A) cells; cited from earlier work
[3] = system: ischemia reperfusion (I/R)-induced iAKI; assay: functional screening of amino acids in ischemia reperfusion (I/R)-induced iAKI; type: in vivo, wild type C57B/L6 mice; conditions: 48 hours reperfusion after 25 min ischemia, 75 mg/kg i.p. 1 hour prior and every 8 hours afterwards, vs vehicle; for BUN / sCr: n=5-6
Procedure: FIGS. 4A-F show functional screening of amino acids for the regulation of ischemia reperfusion (I/R)-induced iAKI. Ischemia was incurred by clamping renal artery of the left kidney for 25 min while the right kidney was removed prior to clamping. Renal functions were analyzed by quantitating serum creatinine (sCr) and blood urea nitrogen (BUN) after the reperfusion for 48 hours. FIGS. 4[…]) or L-valine (Val; 75 mg/kg) were intraperitoneally administered into wild type C57B/L6 mice 1 hour prior to the induction of ischemic and every 8 hours afterwards.

[4] = system: rhabdomyolysis (Rh)-induced iAKI; assay: functional screening of amino acids in rhabdomyolysis (Rh)-induced iAKI (50% glycerol i.m.); type: in vivo, wild type C57BL6 mice
Procedure: FIGS. 2A-L show a functional screening of amino acids for the regulation of rhabdomyolysis (Rh)-induced iAKI. Rh was incurred by intramuscularly injecting 50% glycerol (6 ml/kg), and renal functions were analyzed by quantitating serum creatinine (sCr) and blood urea nitrogen (BUN) after 24, 48 and 168 hours. […] or glutamine (75 mg/kg) were intraperitoneally administered into wild type C57BL6 mice at 1 hour prior to injury incurrence. It was observed that sCr and BUN were reduced at 24 hours (FIGS. 2A, B) in isoleucine-treated rhabdomyolysis mice, but were increased at 48 hours in leucine-treated mice (FIGS. 2C, D) when compared with vehicle (Veh)-treated counterparts (n=7). […] FIG. 2[…], or histidine were intraperitoneally administered into wild type C57BL6 mice at 1 hour prior to injury incurrence and then every 8 hours thereafter. It was observed that threonine reduces sCr and BUN at 24 h and histidine reduces sCr and BUN at 24 h and 48 h when compared with Veh Rh mice. Therefore, threonine and histidine protected from Rh-induced iAKI. […] FIGS. 3A-F show a functional screening of […] or L-valine for the regulation of rhabdomyolysis (Rh)-induced iAKI. Rh was incurred by intramuscularly injecting 50% glycerol (6 ml/kg), and renal functions were analyzed by quantitating serum creatinine (sCr) and blood urea nitrogen (BUN) after 24, 48 and 168 hours. FIGS. 3[…] or L-valine (75 mg/kg) were intraperitoneally administered into wild type C57BL6 mice at 1 hour prior to injury incurrence and then every 8 hours for a total of 5 doses.

[5] = system: ischemic acute kidney injury (AKI); assay: ischemia/reperfusion (IR) ischemic AKI in nephron-specific Spns1 knockout mice, L-leucine pretreatment; type: in vivo; conditions: Spns1f/f/Six2-Cre IR AKI mice; 75 mg/kg i.p. 1 hour prior; 25 min ischemia, 48 hours reperfusion; vs vehicle; n=4-7
Procedure: (§1) L-leucine (75 mg/kg) was intraperitoneally administered into wild type (WT) and nephron-specific Spns1 knockout (Spns1f/f/Six2-Cre) mice 1 hour prior to initiating ischemic AKI. The left kidney was then removed. Ischemia/reperfusion (IR) was performed by clamping the renal artery of the right kidney for 25 min of ischemia followed by 48 hours of reperfusion.

[6] = system: ischemic acute kidney injury (AKI); assay: ischemia/reperfusion (IR) ischemic AKI in wild type mice, L-leucine pretreatment; type: in vivo; conditions: WT IR AKI mice; 75 mg/kg i.p. 1 hour prior; 25 min ischemia, 48 hours reperfusion; vs vehicle; n=4-7
Procedure: as §1

[7] = 24 hours post Rh, 75 mg/kg i.p. 1 hour prior to injury then every 8 hours, total 5 doses, vs vehicle, n=7 (FIG. 3A)
[8] = 24 hours post Rh, 75 mg/kg i.p. 1 hour prior to injury then every 8 hours, total 5 doses, vs vehicle, n=7 (FIG. 3B)
[9] = 24 h post Rh, i.p. 1 hour prior to injury and every 8 hours thereafter, vs Veh Rh mice (FIG. 2G)
[10] = 24 h post Rh, i.p. 1 hour prior to injury and every 8 hours thereafter, vs Veh Rh mice (FIG. 2H)

Row | SMILES | mTORC1 activation (phosphorylation of S6K1 at threonine 389) [1] | mTORC1 activation (phosphorylation of S6K1 at threonine 389) [2] | BUN [3] | sCr [3] | also measured
1 | N[C@@H](CS)C(=O)O [Cysteine] | activates | – | – | – | –
2 | C[C@H](N)C(=O)O [L-alanine] | activate | activate | – | – | impacts on I/R-AKI (sCr and BUN) [3]: Neither L-serine (FIGS. 4A, B), L-alanine (FIGS. 4A, B) nor L-methionine (FIGS. 4C, D) had significant impacts
3 | N=C(N)NCCC[C@H](N)C(=O)O [L-arginine] | activate | activate | elevated | elevated | sCr [4, 7]: reduced; BUN [4, 8]: reduced
4 | N[C@@H](CC(=O)O)C(=O)O [L-aspartic acid] | – | – | reduced | reduced | –
5 | NC(=O)CC[C@H](N)C(=O)O [L-glutamine] | activate | activate | reduced | reduced | effects on Rh-induced AKI (sCr and BUN) ([4]; 24, 48 and 168 hours post Rh, 75 mg/kg i.p. 1 hour prior to injury, vs vehicle (FIGS. 2A-F)): no significant effects
6 | N[C@@H](Cc1c[nH]cn1)C(=O)O [L-histidine] | activate | activate | reduced | reduced | sCr [4, 9]: reduces; BUN [4, 10]: reduces; sCr ([4]; 48 h post Rh, i.p. 1 hour prior to injury and every 8 hours thereafter, vs Veh Rh mice (FIG. 2I)): reduces; BUN ([4]; 48 h post Rh, i.p. 1 hour prior to injury and every 8 hours thereafter, vs Veh Rh mice (FIG. 2J)): reduces
7 | CC[C@H](C)[C@H](N)C(=O)O [L-isoleucine] | – | – | reduced | reduced | sCr ([4]; 24 hours post Rh, 75 mg/kg i.p. 1 hour prior to injury, vs vehicle, n=7 (FIG. 2A)): reduced; BUN ([4]; 24 hours post Rh, 75 mg/kg i.p. 1 hour prior to injury, vs vehicle, n=7 (FIG. 2B)): reduced
8 | CC(C)C[C@H](N)C(=O)O [L-leucine] | activate | activate | reduced | reduced | Serum creatinine (sCr) [5]: markedly reduced; blood urea nitrogen (BUN) [5]: markedly reduced; sCr ([4]; 48 hours post Rh, 75 mg/kg i.p. 1 hour prior to injury, vs vehicle, n=7 (FIG. 2C)): increased; BUN ([4]; 48 hours post Rh, 75 mg/kg i.p. 1 hour prior to injury, vs vehicle, n=7 (FIG. 2D)): increased; Serum creatinine (sCr) [6]: markedly reduced; blood urea nitrogen (BUN) [6]: markedly reduced
9 | CSCC[C@H](N)C(=O)O [L-methionine] | activate | activate | – | – | impacts on I/R-AKI (sCr and BUN) [3]: Neither L-serine (FIGS. 4A, B), L-alanine (FIGS. 4A, B) nor L-methionine (FIGS. 4C, D) had significant impacts
10 | N[C@@H](CO)C(=O)O [L-serine] | activate | activate | – | – | impacts on I/R-AKI (sCr and BUN) [3]: Neither L-serine (FIGS. 4A, B), L-alanine (FIGS. 4A, B) nor L-methionine (FIGS. 4C, D) had significant impacts
11 | C[C@@H](O)[C@H](N)C(=O)O [L-threonine] | activate | activate | reduced | reduced | sCr [4, 9]: reduces; BUN [4, 10]: reduces
12 | CC(C)[C@H](N)C(=O)O [L-valine] | activate | activate | elevated | elevated | sCr [4, 7]: reduced; BUN [4, 8]: reduced; sCr ([4]; 48 hours post Rh, 75 mg/kg i.p. 1 hour prior to injury then every 8 hours, total 5 doses, vs vehicle, n=7 (FIG. 3C)): reduced; BUN ([4]; 48 hours post Rh, 75 mg/kg i.p. 1 hour prior to injury then every 8 hours, total 5 doses, vs vehicle, n=7 (FIG. 3D)): reduced
13 | NC(=O)C[C@H](N)C(=O)O [asparagine] | activate | activate | – | – | –
14 | C[C@H]1CCC/C=C/[C@@H]2C[C@H](O)C[C@H]2[C@H](O)/C=C/C(=O)O1 [brefeldin A, reference compound] | – | – | – | – | lysosomal localization of mTORC1 induced by glutamine and asparagine ([1]; MEFs): impairs; glutamine and asparagine-induced mTORC1 activation ([1]; wild type and Rag depleted MEFs): inhibits
